Data reported in patent publication US6369075B1, “7[4′-trifluoromethyl-biphenyl-2-carbonyl)amino]-quinoline-3-carboxylic acid amides, and method of inhibiting the secretion of apolipoprotein B” (Pfizer, Inc., priority 1999, dated 2002).

- melting point: 158 °C
Compound: CCS(=O)(=O)O.CCS(=O)(=O)O.O=C(N[C@@H](c1ccccc1)c1ccccn1)c1cnc2cc(NC(=O)c3ccccc3-c3ccc(C(F)(F)F)cc3)ccc2c1 [Example 2D, (S)-7-[(4′-Trifluoromethyl-biphenyl-2-carbonyl)-amino]-quinoline-3-carboxylic acid (phenyl-pyridin-2-yl-methyl)-amide, bis-ethanesulfonate]
